Data published in patent US9187406B2 (The Research Foundation of State University of New York, priority 2009, dated 2015).
Entries after “also recorded” stand apart in the source; their conditions may differ. Where two headings read alike, the source gives them in different places.

Experiments:
[1] = molecular target: chromatographically-purified MMP-2 (Homo sapiens (Human), UniProt P08253); assay: MMP-2 inhibition in vitro, octapeptide/HPLC; assay type: biochemical; details: for Ratio = IC50 test compound/IC50 standard, MMP-2: standard 1,10-phenanthroline
[2] = molecular target: MMP-9 (human leukocyte gelatinase) (Homo sapiens (Human), UniProt P14780); assay: MMP-9 inhibition in vitro, octapeptide/HPLC; assay type: biochemical
Description: In contrast all three chemically-modified curcumins at 100 μm final concentration inhibited gelatinase activity by 68-100% (FIG. 6 and Table 6).

[3] = molecular target: chromatographically-purified MMP-13 (Collagenase-3) (Homo sapiens (Human), UniProt P45452); assay: MMP-13 inhibition in vitro, octapeptide/HPLC; assay type: biochemical; details: for Ratio = IC50 test compound/IC50 standard, MMP-13: standard 1,10-phenanthroline
purified human PMN MMP-8 = purified human PMN MMP-8 (Homo sapiens (Human), UniProt P22894); assay: MMP-8 inhibition, synthetic octapeptide substrate, tripeptide product by HPLC; assay type: biochemical
[4] = Solubility in aqueous solutions; assay type: physicochemical
[5] = tested on: neonatal rat ventricular myocytes; assay: Hydrogen peroxide induced LDH release; assay type: cell-based; details: 10 μM, H2O2 100 μM
Procedure: Test compounds and concentrations (MMP inhibitors, MMPi): • 1. GM-6001: 10 μM • 2. ONO-4817: 10 μM • 3.
Neonatal rat ventricular myocytes, serum starved for 24 h, were treated with the inhibitors 1 h prior to the addition of 100 μM of hydrogen peroxide (Sigma). LDH release in the conditioned media was quantified using CytoTox-ONE Homogeneous Membrane Integrity Assay reagent (Promega) at the indicated time points.

MMP-2 = MMP-2 (Mus musculus (Mouse), UniProt P33434); details: 15 μM; cited from earlier work
human monocytes [6] = assay: Cytotoxicity in human monocytes (MTS); assay type: cell-based
TNF-α = TNF-α production by LPS-stimulated monocytes (ELISA); assay type: cell-based, human
Procedure: (§1) Briefly, human peripheral blood monocytes (HMs) were isolated from a leukocyte concentrate by density gradient centrifugation (Lymphoprep) and the isolated HMs cultured (2 h, 37° C.) to remove non-adherent cells. The adherent HMs were cultured for 18 h (1×10^6 cells/well, 24-well plates)±endotoxin (LPS)±different compounds dissolved in DMSO (the final concentration of DMSO in the RPMI serum-free culture media with Pen./Strep. antibiotics was no greater than 0.5%). After incubation, the proinflammatory cytokines, TNFα, IL-1β, MCP-1 and IL-6 were measured in the conditioned media by ELISA and cytotoxicity was assessed by measuring the absorbance (490 nm) of formazan produced by reduction of MTS. The HMs alone ±0.1-0.5% DMSO produced minimal levels of these pro-inflammatory cytokines. However, addition of 100 ng/ml or 10 μg/ml of LPS both dramatically stimulated cytokine production.

human monocytes [7] = assay: Cytotoxicity in human monocytes (MTS); assay type: cell-based; remark: listed apart in the source
Procedure: as §1

[8] = Extractability/recovery from human serum by HPLC
Procedure: Detection of compounds & extractability/recovery from human serum (for future use to determine in vivo pharmacokinetics) was achieved using HPLC. The HPLC detection method is briefly described herein. 50 μl of buffer or human serum containing 166.67 μM, 16.67 μM and 1.67 μM of the compounds were incubated with 100 μl pre-cooled (−10° C.) extraction solvent containing CAN-MeOH-0.5M oxalic acid at a ratio of 60:30:10. The mixture was vortexed and centrifuged at 10,000 rpm for 10 min. The supernatant was then aliquoted and injected into an HPLC for analysis. Stock solutions of the compounds were made 100× in DMSO, then further diluted with buffer or serum.

purified human PMN MMP-8, sequence (P22894 101-467): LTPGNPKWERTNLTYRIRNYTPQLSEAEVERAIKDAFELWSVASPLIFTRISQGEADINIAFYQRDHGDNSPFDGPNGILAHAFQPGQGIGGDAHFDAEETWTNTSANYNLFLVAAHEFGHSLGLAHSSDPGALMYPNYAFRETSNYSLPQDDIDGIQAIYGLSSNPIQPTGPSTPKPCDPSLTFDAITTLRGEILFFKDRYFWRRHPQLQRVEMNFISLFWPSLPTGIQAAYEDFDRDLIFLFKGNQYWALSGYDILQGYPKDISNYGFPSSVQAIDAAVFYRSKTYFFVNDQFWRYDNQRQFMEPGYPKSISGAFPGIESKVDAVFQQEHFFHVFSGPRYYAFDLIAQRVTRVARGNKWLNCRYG
chromatographically-purified MMP-2, sequence (P08253 110-660): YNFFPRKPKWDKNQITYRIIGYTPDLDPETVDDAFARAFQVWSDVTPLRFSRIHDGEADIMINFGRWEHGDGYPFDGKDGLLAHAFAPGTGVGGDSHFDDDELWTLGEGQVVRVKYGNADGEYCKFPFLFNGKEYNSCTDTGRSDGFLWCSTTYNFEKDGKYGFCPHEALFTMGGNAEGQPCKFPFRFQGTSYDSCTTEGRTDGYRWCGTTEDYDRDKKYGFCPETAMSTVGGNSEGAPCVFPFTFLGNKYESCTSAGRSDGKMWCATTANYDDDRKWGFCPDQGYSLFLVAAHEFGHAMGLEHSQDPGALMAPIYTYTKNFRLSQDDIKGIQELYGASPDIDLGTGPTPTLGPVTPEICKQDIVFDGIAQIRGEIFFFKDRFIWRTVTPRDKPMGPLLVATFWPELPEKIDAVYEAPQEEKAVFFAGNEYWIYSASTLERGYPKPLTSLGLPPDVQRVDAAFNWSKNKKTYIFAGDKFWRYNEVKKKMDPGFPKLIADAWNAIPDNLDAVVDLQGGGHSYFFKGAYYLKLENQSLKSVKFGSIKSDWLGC
MMP-9 (human leukocyte gelatinase), sequence (P14780 94-707): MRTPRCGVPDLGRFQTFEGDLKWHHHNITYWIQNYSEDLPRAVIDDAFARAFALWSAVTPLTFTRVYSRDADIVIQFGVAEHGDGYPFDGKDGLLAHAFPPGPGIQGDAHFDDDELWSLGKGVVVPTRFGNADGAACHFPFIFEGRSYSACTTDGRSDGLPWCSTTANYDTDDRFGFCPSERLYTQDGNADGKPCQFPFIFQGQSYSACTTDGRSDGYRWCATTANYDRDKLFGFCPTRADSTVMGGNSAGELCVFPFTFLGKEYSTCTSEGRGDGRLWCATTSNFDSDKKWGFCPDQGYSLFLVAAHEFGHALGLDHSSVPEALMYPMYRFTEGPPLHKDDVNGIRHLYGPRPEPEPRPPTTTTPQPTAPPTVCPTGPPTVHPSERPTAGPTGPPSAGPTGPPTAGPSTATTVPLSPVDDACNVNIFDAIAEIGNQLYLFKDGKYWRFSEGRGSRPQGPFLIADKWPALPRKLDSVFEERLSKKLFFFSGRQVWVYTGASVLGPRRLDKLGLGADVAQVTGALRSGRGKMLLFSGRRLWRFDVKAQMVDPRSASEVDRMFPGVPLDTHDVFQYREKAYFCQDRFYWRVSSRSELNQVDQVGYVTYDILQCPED

| Structure (SMILES) | IC50 ([1]; read-out: IC50 MMP-2) [µM] | Ratio = IC50 test compound/IC50 standard, MMP-2 [1] | IC50 [2] [µM] | IC50 [3] [µM] | Ratio = IC50 test compound/IC50 standard, MMP-13 [3] | further results |
| --- | --- | --- | --- | --- | --- | --- |
| c1cnc2c(c1)ccc1cccnc12 [1,10-O-phenanthroline, reference compound] | 70 | 1.0 | 9 | 4 | 1.0 | IC50 (purified human PMN MMP-8; Table 1 experiments, read-out: IC50 against purified hMMP-8): 10 to 35 µM; Ratio of each IC50 to IC50 of 1,10-O-phenanthroline (purified human PMN MMP-8; hMMP-8): 1 = 35 μM 1 = 10 μM |
| COC(=O)C(C(=O)/C=C/c1ccccc1)C(=O)/C=C/c1ccccc1 [Compound 2] |  |  |  |  |  | IC50 against purified hMMP-8 (purified human PMN MMP-8; Table 1 experiments): did not show a dose response; also recorded: No dose response |
| COC(=O)C(C(=O)/C=C/c1ccc(O)cc1)C(=O)/C=C/c1ccc(O)cc1 [Compound 3, 1,7-Bis(4-hydroxyphenyl)-4-methoxycarbonylhepta-1E,6E-dien-3,5-dione] | 70 | 1.0 | 6 | 8 | 2.0 | Solubility in aqueous solutions (comparative) [4]: more soluble in aqueous solutions than compound 1; IC50 (purified human PMN MMP-8; Example 7 experiment, 1 mM Ca++, 37° C., read-out: IC50, human neutrophil collagenase (MMP-8)): ≤ 5 µM |
| COc1cc(/C=C/C(=O)CC(=O)/C=C/c2ccc(N(C)C)cc2)ccc1O [Compound 4] | > 250 | >3.6 | 17 | 250 | 62.5 |  |
| COc1cc(/C=C/C(=O)C(C(=O)/C=C/c2ccc(O)c(OC)c2)C(=O)Nc2ccccc2)ccc1O [Compound 6, 1,7-Bis(4-hydroxy-3-methoxyphenyl)-4-N-phenylaminocarbonylhepta-1E,6E-dien-3,5-dione] | 85 |  |  |  |  |  |
| O=C(/C=C/c1ccc(O)cc1)C(C(=O)/C=C/c1ccc(O)cc1)C(=O)Nc1ccccc1 [Compound 7, 1,7-Bis(4-hydroxyphenyl)-4-N-phenylaminocarbonylhepta-1E,6E-dien-3,5-dione] | 125 | 1.8 |  | < 1 | <0.3 |  |
| CN(C)c1ccc(/C=C/C(=O)C(C(=O)/C=C/c2ccc(N(C)C)cc2)C(=O)Nc2ccccc2)cc1 [Compound 8, 1,7-Bis(4-dimethylaminophenyl)-4-N-phenylaminocarbonylhepta-1E,6E-dien-3,5-dione] |  |  |  | 45 | 11.3 | IC50 MMP-2 (μM) [1]: Unmeasurable* |
| CNC(=O)[C@H](Cc1c[nH]c2ccccc12)NC(=O)[C@@H](CC(=O)NO)CC(C)C [GM-6001, reference compound] |  |  |  |  |  | Effect on LDH release [5]: did not affect LDH release |
| CCOCOC[C@H](C[C@H](C)C(=O)NO)NC(=O)c1ccc(Oc2ccccc2)cc1 [ONO-4817, reference compound] |  |  |  |  |  | Effect on LDH release [5]: did not affect LDH release |
| COc1cc(/C=C/C(=O)CC(=O)/C=C/c2ccc(O)c(OC)c2)ccc1O [curcumin] |  |  | 29 |  |  | Effect on MMP-2 activity (MMP-2): significant inhibitory effect; Solubility in aqueous solutions (comparative) [4]: insoluble; IC50 [1]: 85 µM; Cytotoxicity Monocytes @ 5 h incubation (human monocytes [6]; 10 uM): 10 uM- 0%; Cytotoxicity Monocytes @ 5 h incubation (human monocytes [6]; 20 uM): 20 uM- 20%; Cytotoxicity Monocytes @ 5 h incubation (human monocytes [6]; 50 uM): 50 uM- 50%; Maximum Inhibition At 100 μM compound, MMP-9 ([2]; 100 μM): 58%; Decrease of TNFα production by endotoxin-stimulated human monocytes (TNF-α; 10 and 20 μM): no effect; Decrease of TNFα production by endotoxin-stimulated human monocytes (TNF-α; 50 and 100 μM): 80-90%; Cytotoxicity Monocytes @ 18 h incubation (human monocytes [7]; 10 uM): 10 uM- 0%; Cytotoxicity Monocytes @ 18 h incubation (human monocytes [7]; 20 uM): 20 uM- 20%; Cytotoxicity Monocytes @ 18 h incubation (human monocytes [7]; 50 uM): 50 uM- 77%; Cytotoxicity in human monocyte culture (human monocytes [7]; 50 and 100 μM): significant cytotoxicity; Recovery from human serum ([8]; HPLC after solvent extraction): 83-94%; recovery ([8]; human, human serum): 83 to 94% |
